# Earlier results in US20090241222A1, “TANDEM REAPEAT DNA CONSTRUCTS PRODUCING PROTEINS THAT ATTACK PLANT PATHOGENIC VIRUSES, FUNGI, AND BACTERIA BY DISRUPTING TRANSCRIPTION FACTORS ESSENTIAL FOR REPLICATION THEREOF IN PLANTS” (priority 2008, published 2009).
# Tested on: Magnaporthe grisea
# Settings: PA treated plants; cited from earlier work
structure (smiles),measurement,value
"O=C(O)c1ccccn1 [picolinic acid, 2-pyridine carboxylic acid]",resistance against M. grisea,enhanced
